In ChEMBL document CHEMBL1130885, “A potent and selective inhibition of parainfluenza 1 (Sendai) virus by new 6-oxiranyl-, 6-methyloxiranyluracils, and 4(3H)-pyrimidinone derivatives” (1998):

Experiments:
[1] = test system: MDCK; test: Antiviral activity against parainfluenza 1 (sendai) virus was determined in madin Darby canine kidney (MDCK)i cells; assay type: functional, Canis lupus familiaris; details: read-out: ED50 (the source's name)
[2] = test system: MDCK; test: Minimum toxic concentration required to cause microscopically detectable alteration of confluent madin Darby canine kidney (MDCK)cell morphology; assay type: functional, Canis lupus familiaris
[3] = organism: Mus musculus; test: Inhibitory concentration required to inhibit proliferation in mouse myeloma cells; assay type: functional

Row | SMILES | EC50 ([1]; Canis lupus familiaris, MDCK) [µM] | MTC [2] [µM] | CC50 ([3]; Mus musculus) [µM] | EC50 [1] [µM] | CC50 [3] [µM]
1 | C[C@H]1O[C@@]1(C)Cc1cc(=O)n(C)c(=O)n1C | > 2 | >2 | 89 | – | –
2 | C[C@@H]1O[C@@]1(C)Cc1cc(=O)n(C)c(=O)n1C | > 2 | >2 | 89 | – | –
3 | Cn1c(OC2CCCCC2)nc(CC2(c3ccccc3)CO2)cc1=O (configuration not stated) | 147 | 294 | > 294 | – | –
4 | Cn1c(CC2(c3ccccc3)CO2)cc(=O)n(C)c1=O (configuration not stated) | 0.18 | 0.37 | 3.7 | – | –
5 | Cn1c(CC2(C)CO2)cc(=O)n(C)c1=O (configuration not stated) | 0.24 | 0.48 | 4 | – | –
6 | Cn1c(CC2(C(C)(C)C)CO2)cc(=O)n(C)c1=O (configuration not stated) | 0.59 | >0.79 | 7.9 | – | –
7 | CCCOc1nc(CC2(c3ccccc3)CO2)cc(=O)n1C (configuration not stated) | 16.6 | 330 | > 30 | – | –
8 | Cn1c(C2OC2(C)c2ccccc2)cc(=O)n(C)c1=O (configuration not stated) | 0.47 | >0.81 | 7.3 | – | –
9 | Cn1c(CC23CCCC2O3)cc(=O)n(C)c1=O (configuration not stated) | 0.42 | >0.84 | 8.4 | – | –
10 | Cn1c(C2OC2c2ccccc2)cc(=O)n(C)c1=O (stereo in doubt; 6c) | – | 380 | – | 193 | > 380
11 | Cn1c(C2OC2c2ccccc2)cc(=O)n(C)c1=O (stereo in doubt; 6b) | – | >0.8 | – | 0.38 | 7.7
12 | Cn1c(CC23CCCCC2O3)cc(=O)n(C)c1=O (configuration not stated) | > 2 | >2 | 40 | – | –
13 | CCCOc1nc(CC23CCCCC2O3)cc(=O)n1C (configuration not stated) | 176 | >352 | > 352 | – | –
14 | CC1OC1(C)Cc1cc(=O)n(C)c(OC2CCCCC2)n1 (configuration not stated) | 171 | 342 | > 342 | – | –
